Measurements reported in patent publication US6410249B1, “Odorant receptors” (priority 1999, dated 2002).

Columns and labels:
receptor 5.24 [1] = target: T1, receptor 5.24 (Carassius auratus, UniProt Q9PW88); test: biochemical; type: binding
T1 construct: The receptor 5.24 full length cDNA detects 1-2 bands in genomic DNA blots; expressed in transfected cells; host or cells: HEK 293 cells expressing SV40 large T antigen (293-TSA)
T1 sequence (Q9PW88 25-877): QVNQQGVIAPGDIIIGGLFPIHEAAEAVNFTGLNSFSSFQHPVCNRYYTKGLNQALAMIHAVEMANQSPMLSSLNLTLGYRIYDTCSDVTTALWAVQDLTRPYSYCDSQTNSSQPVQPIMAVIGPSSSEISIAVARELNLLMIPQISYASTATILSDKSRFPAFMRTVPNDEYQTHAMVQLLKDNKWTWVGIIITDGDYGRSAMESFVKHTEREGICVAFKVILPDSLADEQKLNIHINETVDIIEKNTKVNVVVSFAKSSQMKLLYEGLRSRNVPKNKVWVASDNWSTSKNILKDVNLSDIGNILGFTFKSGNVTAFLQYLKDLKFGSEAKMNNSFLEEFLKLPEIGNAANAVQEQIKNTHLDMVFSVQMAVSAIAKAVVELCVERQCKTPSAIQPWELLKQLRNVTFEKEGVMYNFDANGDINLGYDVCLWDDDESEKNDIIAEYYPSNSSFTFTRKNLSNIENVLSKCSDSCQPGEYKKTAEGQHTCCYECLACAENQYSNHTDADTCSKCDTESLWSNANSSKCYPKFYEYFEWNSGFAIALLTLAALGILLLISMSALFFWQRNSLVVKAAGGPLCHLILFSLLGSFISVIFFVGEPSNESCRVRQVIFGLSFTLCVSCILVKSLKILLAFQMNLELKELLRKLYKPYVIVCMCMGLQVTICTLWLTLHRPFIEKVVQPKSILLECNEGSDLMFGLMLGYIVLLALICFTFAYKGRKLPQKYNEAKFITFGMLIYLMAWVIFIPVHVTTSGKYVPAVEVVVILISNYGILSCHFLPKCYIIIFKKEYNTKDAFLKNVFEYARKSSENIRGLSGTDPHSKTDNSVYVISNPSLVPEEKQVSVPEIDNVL
Procedure: Structure-Activity Properties of Compounds Interacting with the Cloned Goldfish Amino Acid Odorant Receptor. An understanding of how odorant receptors are used to encode olfactory information requires a characterization of the odorant specificities of individual receptor types. We therefore wished to determine the relative specificity of receptor 5.24 for structurally related ligands. […] Briefly, 3H-arginine binding to membranes from receptor 5.24-expressing HEK 293 cells was assayed in the absence or presence of varying concentrations of competitor ligands.
Mammalian Cell Culture and DNA Transfections. For cell transfections, the receptor 5.24 cDNA insert was subcloned into two expression vectors: CMVI, which utilizes a human cytomegalovirus (CMV) immediate early promoter-enhancer plus the CMV intron A sequence to drive expression, and 608RX-2.2L, which is similar to CMVI except the cDNA insert is followed by an internal ribosome entry site (IRES)—enhanced green fluorescent protein (EGFP) coding sequence; 608RX-2.2L also contains a puromycin resistance gene. For transient assays, HEK 293 cells expressing the SV40 large T antigen (293 TSA cells) were transfected with the CMVI-receptor 5.24 or CMVI control plasmid using lipofectamine (Life Technologies) and harvested at 48 hours for membrane preparations. For stable cell lines, 293-TSA cells were transfected with the 608RX-2.2L-receptor 5.24 plasmid or a control 608RX-2.2L plasmid and selected in puromycin. Colonies showing high levels of EGFP fluorescence (as judged by epifluorescence microscopy) were picked, expanded, and screened for 3H-L-arginine binding (see below).
Membrane Preparations and Ligand Binding Assays. Membranes for ligand binding assays were prepared by washing confluent cells three times with phosphate buffered saline (PBS), detaching cells with a PBS-based enzyme-free dissociation solution, and resuspending cells in ice-cold 5.0 mM Hepes, pH 7.4, 1.0 mM EDTA, 1.0 μg/ml leupeptin, 0.5 mM PMSF. All subsequent manipulations were performed on ice. After a 30 min incubation, the cell suspension was homogenized and centrifuged at 100,000×g for 30 min. Cell membrane pellets were washed twice by resuspension and centrifugation in binding buffer (20 mM Hepes, pH 7.4, 1.0 mM EDTA, 2.0 mM MgCl2, 1.0 μg/ml leupeptin, 0.5 mM PMSF), resuspended in binding buffer, and frozen at −80° C.
Saturation binding assays were performed using 20-25 μg of membrane protein in a final volume of 100 μl binding buffer and increasing concentrations of [2,3-3H] L-arginine (specific activity=40 Ci/mmol; Dupont NEN). Non-specific binding was measured in the presence of 500 μM unlabeled L-arginine. Competition assays were performed with 500 nM [2,3-3H] L-arginine and increasing concentrations of competitor ligands. All incubations were performed at 4° C. for 60 min and terminated by rapid filtration through Whatman GF/C filters pretreated with ice cold 0.1% polyethyleneimine. Filters were washed three times with 4.0 ml ice cold 20 mM Hepes, pH 7.4, and retained radioactivity was measured by scintillation counting.

receptor 5.24 [2] = target: T1, receptor 5.24; test: cAMP accumulation in receptor 5.24-expressing HEK 293 cells; type: cell-based, goldfish; details: 0.1 mM or 10 mM
Text: High-Affinity Binding of Radiolabeled L-Arginine to the Cloned Goldfish Odorant Receptor. To determine the affinity of the cloned goldfish amino acid receptor for basic amino acids, we characterized the ligand-receptor interaction by radiolabeled ligand binding to receptors expressed in mammalian cells. Human embryonic kidney (HEK) 293 cells were transfected with expression plasmids containing the receptor 5.24 cDNA insert. […] We next wished to determine what second messenger pathway receptor 5.24 couples to in HEK 293 cells. Control cells or cells expressing receptor 5.24 were exposed to varying concentrations of arginine and assayed for the accumulation of IP3 and cAMP.
IP3 and cAMP Measurements. For measurements of IP3 and cAMP, cell lines 5.24-20 and 2.2-9 (negative control) were plated at densities of 3.5×10^5 cells/well in 24 well plates and incubated overnight in DMEM containing 10% FBS. All subsequent manipulations prior to reaction termination were performed at 37° C. in 5% CO2. […] IP3 levels were determined by a radioreceptor competition assay (Dupont NEN). For cAMP measurements, after the 3 hour amino acid-free preincubation cells were washed once with PBS, preincubated for 15 min in PBS containing 0.5 mM IBMX, and exposed to odorants in 400 μl PBS/0.5 mM IBMX for 30 min. cAMP levels were determined by radioimmunoassay (DuPont NEN).

[3] = system: catfish olfactory neurons; details: 100 μM, catfish olfactory epithelium; cited from earlier work

In the case of N=C(N)NCCC[C@H](N)C(=O)O [L-Arginine], the Ki (receptor 5.24 [1]) is reported as 80 nM, the “binding to receptor 5.24, in words” value (receptor 5.24 [1]; comparative binding studies) is reported as “highest affinities” and the “change in cAMP levels, in words” value (receptor 5.24 [2]) is reported as “does not cause a detectable change”. For the same compound, the “fraction of olfactory neurons responding” value [3] was roughly 40%.
